This passage reports IC50, AC50 and EC50 results from ChEMBL document CHEMBL1201862, “PubChem BioAssay data set” (2004).

By IC50 is commonly meant the concentration at which inhibition is half-maximal. Usually AC50 stands for the concentration at which the activity in the assay is half-maximal. What is called EC50 is the concentration at which the effect is half-maximal.

Test [1] addresses T1, Bcl-2-related protein A1 (Mus musculus, UniProt Q07440).
T1 sequence (Q07440 whole entry): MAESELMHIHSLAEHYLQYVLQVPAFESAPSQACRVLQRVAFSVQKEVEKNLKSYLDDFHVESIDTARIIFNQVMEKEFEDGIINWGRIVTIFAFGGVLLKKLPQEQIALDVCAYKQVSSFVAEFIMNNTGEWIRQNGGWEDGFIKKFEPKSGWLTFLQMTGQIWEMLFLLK
Briefly: Bfl-1 inhibitors blocking BH3 peptide binding, confirmation, biochemical, TR-FRET, mouse Bfl-1 (AID 621).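 Also: TR-FRET binding of GST-Bfl-1 to FITC-labelled Bid peptide via terbium antibody.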 In general terms: Time-resolved FRET reads energy transfer from a long-lived donor to a nearby acceptor.

The target of test [2] is T1, Bcl-2-related protein A1. The experiment in a line: Bfl-1 inhibitors, primary screen, biochemical, fluorescence polarization, FITC-Bid, mouse (AID 432). In general terms: Polarisation of emitted light reports the rotation of a fluorescent probe.
Test [3] has as its target Heat shock protein HSP 90-alpha (Homo sapiens, UniProt P07900). Briefly: Luminescence-based dose response biochemical high throughput screening assay for inhibitors of the Heat Shock Protein 90 (HSP90). [Related pubchem assays: 1831 (Summary AID.), 1846 (Confirmation screen.), 1789 (Primary screen.)].
The nature of test [4]: cells. In kind it is functional.
The nature of test [5]: HepG2 cell cytotoxicity, dose response, cytotoxicity control for Shn3 inhibitor project, CellTiter-Glo, cherry-picked (AID 624134). In kind it is functional, cell-based. A general note: In ATP-based viability assays light output follows the ATP content of the culture.
The nature of test [6]: A549 cell cytotoxicity, dose response, cytotoxicity control, plate reader, cherry-pick, antagonist series (AID 743412). Type of test: functional, cell-based.
In test [7] the test system is BJ. The experiment in a line: cytotoxicity toward BJ-TERT-LT-ST fibroblasts, dose response, cell-based, RAS-independent, luminescence (AID 1935).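 Also: BJ fibroblasts immortalized with TERT plus LT and ST oncogenes.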 In kind it is functional. Conditions: Homo sapiens.
Test [8] in a line: non-specific cell cytotoxicity, dose response, cytotoxicity control for PAX8 inhibitor project, plate reader, dry powder samples (AID 743021). Type of test: functional, cell-based.
In test [9] the test system is BJ. Briefly: cytotoxicity toward Ras-transformed BJeLR fibroblasts, dose response, cell-based, alamar blue fluorescence, cherrypicked samples (AID 2631).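 Also: confirmatory dose-response assay in RAS-dependent BJ fibroblasts engineered with TERT, LT and ST, with cytotoxicity read by fluorescence.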 In kind it is functional. The conditions noted are these: Homo sapiens.
Test [10] is described as follows: HepG2 cell cytotoxicity, dose response, cytotoxicity control, plate reader, cherry-pick, antagonist series (AID 743416). Type of test: functional, cell-based.
In test [11] the test system is BJ. The experiment in a line: cells. Type of test: functional, cell-based. Conditions: Homo sapiens.
Test [12] in a line: cytotoxicity toward DRD oncogenic fibroblasts, dose response, cell-based, non-viral oncogenic, luminescence (AID 1934). In kind it is functional. Conditions: Homo sapiens.
Test [13] in a line: LGR2 antagonists, dose response, cell-based, HEK293, CRE-luciferase reporter, cherry pick, set 2 (AID 743343).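 Also: transfected cells were stimulated with diluted bursicon conditioned medium after compound addition.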 In kind it is functional.
Another test deals with Paired box protein Pax-8 (Homo sapiens, UniProt Q06710). Briefly: inhibitors of PAX8-driven TPO luciferase reporter, dose response, RMG-I cells, cherry-pick (AID 687027).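 Also: luciferase reporter driven by Pax8 target thyroperoxidase promoter measured by SteadyGlo luminescence.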 In kind it is functional, cell-based.
The target of test [14] is Luciferin 4-monooxygenase (Photinus pyralis, UniProt P08659). The experiment in a line: firefly luciferase enzyme inhibitors, dose response, biochemical, luminescence (AID 1891).
Test [15] in a line: P. falciparum late gametocyte killing, dose response, luminescence (AID 1117278).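 Also: gametocytes exposed to compound for 24 hours.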 Type of test: functional, cell-based.
A short description of test [16]: control 3'UTR Renilla luciferase suppression, dose response, counter-screen for Shn3 inhibitor project, cell-based, Clone20-Shn3RL, cherry-picked (AID 624133). Type of test: functional.
Test [17] deals with BJ. The experiment in a line: cytotoxicity toward BJ-TERT fibroblasts, dose response, cell-based, RAS-independent, luminescence (AID 1933). Conditions: Homo sapiens. Type of test: functional.
A short description of test [18]: Luminescence Cell-Based Dose Confirmation HTS to Identify Inhibitors of Platelet Dense Granule Release. [Related pubchem assays: 1663 (Primary HTS), 1678 (Summary of Project)]. In kind it is functional.
The nature of test [19]: Jurkat T cell cytotoxicity, dose response, cytotoxicity control for P. falciparum gametocyte viability project, luminescence (AID 1117277).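 Also: potency reflects loss of cellular ATP meaning fewer viable cells.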 In kind it is functional, cell-based.
Test [20] is described as follows: Shn3 3'UTR reporter inhibitors, dose response, cell-based, Clone20 osteoblasts, firefly luciferase, cherry-picked (AID 624132).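 Also: firefly luciferase luminescence from reporter carrying the Shn3 3'UTR in osteoblasts.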 Type of test: functional.
A short description of test [21]: HEK293 cell cytotoxicity, dose response, cytotoxicity control, plate reader, cherry-picked samples (AID 743446). Type of test: functional, cell-based.
Test [22] is described as follows: MC4R antagonists, dose response, counter-screen for LGR2 antagonist project, cell-based, plate reader, cherry pick (AID 743444).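 Also: transfected HEK 293 cells stimulated with alpha-MSH peptide; potency of inhibitors of the alpha-MSH evoked signal.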 Type of test: functional.
In a further test the target is Cytochrome P450 2C19 (Homo sapiens, UniProt P33261). The experiment in a line: Cytochrome panel assay with activity outcomes. Panel member name: p450-cyp2c19 Compounds with AC50 equal or less than 10 uM are considered active. The conditions noted are these: read-out: AC50. In kind it is functional.
A further test relates to Streptococcus. The experiment in a line: Group A Streptococcus viability loss, dose response, counter-screen for streptokinase expression inhibitor project, luminescence, BacTiterGlo (AID 1915).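 Also: potency for reduction of bacterial viability or growth.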 Type of test: functional, organism-based.
The target in the next test is Cytochrome P450 3A4 (Homo sapiens, UniProt P08684).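 Also: CYP3A4 tested as one member of a cytochrome P450 panel screen.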
The target in a further test is T2, Streptokinase A (Streptococcus pyogenes serotype M1, UniProt P10520).
T2 sequence (P10520 whole entry): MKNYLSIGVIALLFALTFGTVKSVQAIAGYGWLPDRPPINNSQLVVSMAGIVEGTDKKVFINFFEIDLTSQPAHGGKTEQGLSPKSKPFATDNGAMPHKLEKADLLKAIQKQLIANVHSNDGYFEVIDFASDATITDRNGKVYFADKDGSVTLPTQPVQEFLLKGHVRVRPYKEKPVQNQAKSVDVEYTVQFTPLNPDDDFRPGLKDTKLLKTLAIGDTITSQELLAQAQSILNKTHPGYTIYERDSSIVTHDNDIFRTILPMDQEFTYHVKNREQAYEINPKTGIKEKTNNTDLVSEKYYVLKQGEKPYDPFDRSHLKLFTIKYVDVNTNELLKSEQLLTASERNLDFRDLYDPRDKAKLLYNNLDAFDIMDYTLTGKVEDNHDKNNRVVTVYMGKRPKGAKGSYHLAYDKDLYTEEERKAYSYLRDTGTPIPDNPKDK
The experiment in a line: S. pyogenes streptokinase expression inhibitors, potency, dose response, plasminogen activation absorbance, OD405 (AID 1914).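 Also: secreted streptokinase activity via plasminogen activation per viability signal from cell pellet.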 In kind it is functional, Streptococcus pyogenes M1 GAS.

For test [23], the system named is Streptococcus sp. 'group A'. The experiment in a line: growth inhibition of control SK(-) GAS strain, dose response, counter-screen for streptokinase expression inhibitor project, luminescence, kanamycin, BacTiterGlo, confirmation (AID 1900). Type of test: functional, organism-based.
Test [24] deals with Voltage-gated inwardly rectifying potassium channel KCNH2 (Homo sapiens, UniProt Q12809). The experiment in a line: hERG protection from proarrhythmic block, potency, dose response, cell-based, thallium flux (AID 2121). In kind it is ADME.
For the next test, the target named is T3, Cytochrome P450 1A2 (Homo sapiens, UniProt P05177).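 Also: PubChem cytochrome P450 panel assay, CYP1A2 panel member.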
T3 sequence (P05177 whole entry): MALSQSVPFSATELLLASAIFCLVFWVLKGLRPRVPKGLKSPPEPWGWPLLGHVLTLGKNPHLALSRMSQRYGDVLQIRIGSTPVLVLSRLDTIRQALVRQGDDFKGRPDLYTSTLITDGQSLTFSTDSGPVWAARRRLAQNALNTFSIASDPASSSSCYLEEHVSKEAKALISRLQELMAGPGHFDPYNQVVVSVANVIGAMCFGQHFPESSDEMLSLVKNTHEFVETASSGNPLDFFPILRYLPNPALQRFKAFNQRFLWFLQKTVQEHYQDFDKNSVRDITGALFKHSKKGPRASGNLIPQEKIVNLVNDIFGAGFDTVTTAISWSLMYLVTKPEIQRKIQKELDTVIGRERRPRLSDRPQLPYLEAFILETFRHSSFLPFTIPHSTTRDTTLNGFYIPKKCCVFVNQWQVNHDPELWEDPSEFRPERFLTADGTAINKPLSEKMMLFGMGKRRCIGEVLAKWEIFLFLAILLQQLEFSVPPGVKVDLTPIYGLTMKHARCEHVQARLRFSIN

The target in test [25] is G-protein coupled receptor 55 (Homo sapiens, UniProt Q9Y2T6). Briefly: GPR55 antagonists blocking LPI-driven arrestin recruitment, primary screen, imaging, U2OS, beta-arrestin-GFP, LPI agonist (AID 2013).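 Also: antagonist potency measured as reduced agonist-driven arrestin aggregation.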 Type of test: functional.
The nature of test [26]: cells. Type of test: functional, cell-based.
Test [27] concerns the target T4, Fatty acid synthase (Homo sapiens, UniProt P49327). Briefly: FAS thioesterase domain inhibitors, dose response, biochemical, kinetic fluorescence intensity (AID 624326).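 Also: rate of fluorescence rise from hydrolysis of a fluorogenic O-methyl fluorescein ester substrate.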 Type of test: functional.
Test [28] is described as follows: cells. In kind it is functional, cell-based. The source holds these as a separate data set.
The target of test [29] is E3 ubiquitin-protein ligase Mdm2 (Homo sapiens, UniProt Q00987). Briefly: enhancers of MDM2-luciferase reporter signal, concentration-effect titration, project on inhibitors of MDM2 ubiquitin ligase, cellular assay, luminescent readout, 384-well plate format (AID 1394).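 Also: MDM2 E3 inhibitors raise luminescence so EC50 is for signal enhancement.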 Type of test: functional.
In test [30] the target is T4, Fatty acid synthase. Briefly: FAS thioesterase domain inhibitors, dose response, biochemical, endpoint fluorescence intensity, uHTS hits (AID 624327).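 Also: fluorescence from hydrolysis of an O-methyl fluorescein acyl ester substrate by the enzyme.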 Type of test: functional.

The source made the active and inactive calls. Some results are limits rather than exact numbers.

T4 sequence (P49327 whole entry, the tested form may be a part): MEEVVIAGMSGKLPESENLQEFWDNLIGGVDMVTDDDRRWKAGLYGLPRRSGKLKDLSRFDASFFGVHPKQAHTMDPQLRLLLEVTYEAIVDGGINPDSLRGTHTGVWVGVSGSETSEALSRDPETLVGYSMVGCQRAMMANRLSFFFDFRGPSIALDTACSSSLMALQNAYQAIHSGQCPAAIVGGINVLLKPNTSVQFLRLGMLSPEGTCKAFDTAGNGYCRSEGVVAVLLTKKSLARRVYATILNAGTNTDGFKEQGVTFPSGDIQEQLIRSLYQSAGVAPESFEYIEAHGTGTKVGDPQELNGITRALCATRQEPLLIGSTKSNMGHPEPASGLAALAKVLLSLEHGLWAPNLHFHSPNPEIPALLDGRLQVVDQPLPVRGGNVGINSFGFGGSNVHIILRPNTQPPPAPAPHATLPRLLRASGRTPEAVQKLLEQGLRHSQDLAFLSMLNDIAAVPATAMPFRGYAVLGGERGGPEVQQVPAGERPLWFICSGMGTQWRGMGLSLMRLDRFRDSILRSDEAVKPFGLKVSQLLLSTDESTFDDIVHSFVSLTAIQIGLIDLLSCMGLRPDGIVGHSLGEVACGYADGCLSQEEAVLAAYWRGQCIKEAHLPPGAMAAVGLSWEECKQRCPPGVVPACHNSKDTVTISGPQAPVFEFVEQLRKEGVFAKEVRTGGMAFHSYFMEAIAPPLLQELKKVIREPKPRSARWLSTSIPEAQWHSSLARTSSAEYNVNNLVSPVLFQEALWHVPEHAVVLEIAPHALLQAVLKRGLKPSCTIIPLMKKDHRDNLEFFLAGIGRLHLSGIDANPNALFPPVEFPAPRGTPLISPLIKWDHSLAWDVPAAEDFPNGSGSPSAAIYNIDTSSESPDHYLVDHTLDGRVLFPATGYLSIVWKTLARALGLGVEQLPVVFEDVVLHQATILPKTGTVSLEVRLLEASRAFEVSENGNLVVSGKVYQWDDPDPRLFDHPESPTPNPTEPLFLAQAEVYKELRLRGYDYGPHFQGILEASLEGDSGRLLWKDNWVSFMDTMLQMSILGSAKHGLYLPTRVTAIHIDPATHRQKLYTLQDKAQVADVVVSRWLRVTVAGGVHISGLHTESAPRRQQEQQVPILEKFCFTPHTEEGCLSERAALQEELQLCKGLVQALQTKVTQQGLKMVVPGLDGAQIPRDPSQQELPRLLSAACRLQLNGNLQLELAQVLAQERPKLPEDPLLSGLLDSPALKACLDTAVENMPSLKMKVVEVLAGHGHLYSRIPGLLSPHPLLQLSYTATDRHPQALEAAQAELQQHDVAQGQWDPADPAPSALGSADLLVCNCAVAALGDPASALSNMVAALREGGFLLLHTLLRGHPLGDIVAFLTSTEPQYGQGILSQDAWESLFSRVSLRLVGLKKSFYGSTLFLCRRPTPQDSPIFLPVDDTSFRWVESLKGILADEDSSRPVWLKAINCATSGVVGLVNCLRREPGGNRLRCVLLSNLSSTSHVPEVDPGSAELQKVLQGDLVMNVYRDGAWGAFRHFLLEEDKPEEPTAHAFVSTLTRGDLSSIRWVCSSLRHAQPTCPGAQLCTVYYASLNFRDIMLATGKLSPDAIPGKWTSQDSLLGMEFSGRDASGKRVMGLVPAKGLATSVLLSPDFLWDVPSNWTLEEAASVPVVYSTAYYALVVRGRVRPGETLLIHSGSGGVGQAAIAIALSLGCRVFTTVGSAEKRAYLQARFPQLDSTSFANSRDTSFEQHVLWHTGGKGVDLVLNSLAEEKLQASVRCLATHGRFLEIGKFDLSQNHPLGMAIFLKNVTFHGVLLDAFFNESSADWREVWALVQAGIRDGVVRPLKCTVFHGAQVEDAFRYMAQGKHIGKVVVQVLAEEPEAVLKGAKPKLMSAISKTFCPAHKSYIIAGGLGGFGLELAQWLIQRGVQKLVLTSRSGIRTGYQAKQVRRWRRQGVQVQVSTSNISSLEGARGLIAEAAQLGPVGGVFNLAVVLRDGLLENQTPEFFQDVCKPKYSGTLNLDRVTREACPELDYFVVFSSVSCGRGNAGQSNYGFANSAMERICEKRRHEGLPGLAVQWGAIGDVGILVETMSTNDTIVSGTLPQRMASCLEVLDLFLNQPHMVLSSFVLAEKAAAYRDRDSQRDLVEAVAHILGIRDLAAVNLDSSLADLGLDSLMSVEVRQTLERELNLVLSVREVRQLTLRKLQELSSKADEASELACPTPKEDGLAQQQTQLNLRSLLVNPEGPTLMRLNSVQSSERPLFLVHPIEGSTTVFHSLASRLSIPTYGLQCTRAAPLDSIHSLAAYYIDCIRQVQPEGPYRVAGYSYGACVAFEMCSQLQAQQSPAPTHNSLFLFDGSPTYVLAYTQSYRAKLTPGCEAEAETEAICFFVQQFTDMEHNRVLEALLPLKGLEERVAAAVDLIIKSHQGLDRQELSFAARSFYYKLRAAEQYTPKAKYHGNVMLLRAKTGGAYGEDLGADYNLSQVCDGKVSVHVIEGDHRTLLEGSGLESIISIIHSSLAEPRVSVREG
Sequence of G-protein coupled receptor 55 (Q9Y2T6 whole entry): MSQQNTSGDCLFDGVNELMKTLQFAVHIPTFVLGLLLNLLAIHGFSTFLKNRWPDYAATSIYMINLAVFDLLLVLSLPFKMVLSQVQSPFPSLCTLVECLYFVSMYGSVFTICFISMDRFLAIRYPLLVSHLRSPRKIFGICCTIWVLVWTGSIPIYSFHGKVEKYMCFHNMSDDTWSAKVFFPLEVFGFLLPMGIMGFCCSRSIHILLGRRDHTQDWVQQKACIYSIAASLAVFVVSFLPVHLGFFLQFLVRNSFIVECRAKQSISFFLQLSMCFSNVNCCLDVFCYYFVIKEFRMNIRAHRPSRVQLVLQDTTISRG
Sequence of Cytochrome P450 2C19 (P33261 whole entry): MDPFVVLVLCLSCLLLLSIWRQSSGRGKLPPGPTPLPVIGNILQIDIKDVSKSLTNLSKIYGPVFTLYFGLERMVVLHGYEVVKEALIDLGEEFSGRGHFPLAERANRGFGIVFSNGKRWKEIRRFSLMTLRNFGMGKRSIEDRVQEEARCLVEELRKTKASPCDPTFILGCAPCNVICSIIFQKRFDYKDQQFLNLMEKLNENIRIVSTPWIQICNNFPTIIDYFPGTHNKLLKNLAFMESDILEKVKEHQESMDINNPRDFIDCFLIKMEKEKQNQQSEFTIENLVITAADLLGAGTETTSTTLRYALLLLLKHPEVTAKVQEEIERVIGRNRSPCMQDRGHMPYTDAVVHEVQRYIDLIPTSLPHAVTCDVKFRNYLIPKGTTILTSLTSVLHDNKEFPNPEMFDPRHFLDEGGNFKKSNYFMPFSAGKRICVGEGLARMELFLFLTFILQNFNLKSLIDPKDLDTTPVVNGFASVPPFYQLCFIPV
Sequence of Cytochrome P450 3A4 (P08684 whole entry): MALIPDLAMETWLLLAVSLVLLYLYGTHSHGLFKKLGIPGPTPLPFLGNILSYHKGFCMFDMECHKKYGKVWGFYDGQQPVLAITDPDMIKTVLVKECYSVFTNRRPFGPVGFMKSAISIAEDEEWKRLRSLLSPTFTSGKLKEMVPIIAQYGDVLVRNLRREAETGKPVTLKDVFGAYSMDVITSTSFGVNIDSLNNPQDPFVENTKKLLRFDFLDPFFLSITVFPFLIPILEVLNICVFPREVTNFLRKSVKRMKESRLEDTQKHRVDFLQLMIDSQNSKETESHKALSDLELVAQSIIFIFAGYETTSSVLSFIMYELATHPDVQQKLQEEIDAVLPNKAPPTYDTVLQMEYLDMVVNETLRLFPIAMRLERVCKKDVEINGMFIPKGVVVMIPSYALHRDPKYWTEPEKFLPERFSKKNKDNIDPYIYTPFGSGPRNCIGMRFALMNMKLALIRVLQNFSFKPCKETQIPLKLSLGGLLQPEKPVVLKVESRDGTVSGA
Sequence of Paired box protein Pax-8 (Q06710 whole entry): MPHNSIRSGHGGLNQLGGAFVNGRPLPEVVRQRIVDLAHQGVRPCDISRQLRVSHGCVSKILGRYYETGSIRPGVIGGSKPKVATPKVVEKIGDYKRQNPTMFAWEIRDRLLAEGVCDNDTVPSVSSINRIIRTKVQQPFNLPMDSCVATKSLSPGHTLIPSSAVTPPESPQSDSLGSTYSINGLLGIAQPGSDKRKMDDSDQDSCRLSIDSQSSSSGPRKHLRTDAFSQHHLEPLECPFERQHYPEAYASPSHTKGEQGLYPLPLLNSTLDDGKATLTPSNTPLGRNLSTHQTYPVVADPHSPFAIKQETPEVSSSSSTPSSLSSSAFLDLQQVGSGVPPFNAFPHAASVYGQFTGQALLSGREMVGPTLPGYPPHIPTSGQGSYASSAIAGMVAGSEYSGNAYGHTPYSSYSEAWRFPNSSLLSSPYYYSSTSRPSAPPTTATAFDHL
Sequence of Luciferin 4-monooxygenase (P08659 whole entry): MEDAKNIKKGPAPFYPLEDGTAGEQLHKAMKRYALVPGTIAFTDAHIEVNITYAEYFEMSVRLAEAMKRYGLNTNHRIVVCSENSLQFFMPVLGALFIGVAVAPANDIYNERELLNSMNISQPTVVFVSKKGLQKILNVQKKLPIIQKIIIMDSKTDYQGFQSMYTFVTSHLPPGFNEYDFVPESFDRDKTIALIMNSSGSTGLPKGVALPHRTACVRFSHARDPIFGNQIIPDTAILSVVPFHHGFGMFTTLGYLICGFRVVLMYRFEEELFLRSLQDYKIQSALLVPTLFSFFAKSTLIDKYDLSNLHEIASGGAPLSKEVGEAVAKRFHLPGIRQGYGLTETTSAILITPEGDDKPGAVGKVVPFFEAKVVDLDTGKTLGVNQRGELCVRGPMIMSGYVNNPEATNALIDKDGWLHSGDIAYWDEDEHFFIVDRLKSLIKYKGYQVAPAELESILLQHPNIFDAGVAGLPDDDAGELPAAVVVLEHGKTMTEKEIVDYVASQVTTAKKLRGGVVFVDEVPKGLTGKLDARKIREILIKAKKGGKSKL

As to `Cc1nn(C)c(C)c1NC(=O)CSc1nc(-c2ccccc2F)nc2c1cnn2-c1ccccc1`, the IC50 on Bcl-2-related protein A1 [1] and against Bcl-2-related protein A1 [2] was > 100 µM (not active) throughout.
With `CCOC(=O)c1csc(COc2ccc(OC)cc2)n1`, the IC50 was 8.03 µM (active) in test [3] and 47.7 µM (active) in the test “cells [4]”.
For `O=c1c2ccccc2cnn1-c1nc2ccccc2[nH]1`, the AC50 is 12.1 µM (active) in test [5]; 2.6 µM (active) in test [6]; 3.39 µM (active) in [8]; 8.61 µM (active) in test [10]; 0.275 µM (active) in test [13]; 1.65 µM (active) on Paired box protein Pax-8. In addition, the AC50 was 27.2 µM (active) in [16], 1.33 µM (active) in test [20], 2.23 µM (active) in test [21] and 0.288 µM (active) in test [22]. The EC50 was 4.79 µM (active) with BJ [7]; > 133 µM (inactive) in the test on BJ [9]; 4.94 µM (active) in the test on BJ [11]; 5.22 µM (active) in test [12]; 1.16 µM (active) in [14]; 5.15 µM (active) in the test with BJ [17]. For the same molecule, the EC50 in test [18] was 0.144 µM (active). Besides, the IC50 was 15.2 µM (inactive) in test [15] and 3.98 µM (active) in test [19].
For the molecule `COc1ccc(/C=C2/SC(N/N=C3\CC4CCC3(C)C4(C)C)=NC2=O)cc1` (stereo unspecified), the concentration at half-maximal activity (AC50) on Cytochrome P450 2C19 was 20 µM (inconclusive); at Cytochrome P450 3A4, 12.6 µM (inconclusive); on Cytochrome P450 1A2, 14.1 µM (inconclusive). The EC50 was > 150 µM (not active) in the test on Streptococcus, > 150 µM (not active) at Streptokinase A, 3.92 µM (active) in test [23] and 0.22 µM (active) in test [24]. Moreover, the half-maximal inhibitory concentration (IC50) in test [25] is 6 µM (active).
With `COCCn1/c(=N/C(=O)c2ccc(S(=O)(=O)N3CCCc4ccccc43)cc2)sc2cc(S(C)(=O)=O)ccc21`, the EC50 in the test “cells [26]” was 298 µM (active); in “cells [28]”, > 350 µM (not active); in test [29] it was 1.03 µM (not active). The values for the IC50 at Fatty acid synthase [27] and on Fatty acid synthase [30] were 64.5 µM (inactive) and 45.9 µM (inactive), respectively.
